Results published in PMC10518255, “A first-in-class pan-lysyl oxidase inhibitor impairs stromal remodeling and enhances gemcitabine response and survival in pancreatic cancer” (Nature Cancer, 2023).
Values joined by “and” are separate entries in the source; they are usually repeats but may differ in a detail not shown here. Identical values can stand only once.

System: α-SMA
Experiment: Immunohistochemistry of end-point KPC tumors: myCAF marker
Type: in vivo, mouse
Conditions: for Percent coverage of aSMA positive staining: Extended Data 6B, KPC tumours at endpoint, individual FOV
Method: All tissues or matrices, including patient TMAs, were fixed in 10% buffered formalin and embedded in paraffin. The 4-μm sections of samples were deparaffinized with xylene and rehydrated in graded ethanol washes. For immunohistochemistry, Bond Dewax Solution (AR9222) was used. Antigen retrieval was performed using Bond RX H2(30) protocol: HIER 30 min ER1 (citrate pH 6) OR ER2 (EDTA pH 9) at 100 °C. Slides were quenched in BOND Polymer Refine Detection (Leica Biosystems DS9800). […] Slides were digitized on an Aperio slide scanner and representative areas per tumor acquired and analyzed by researchers blinded to the conditions of the experiment.
Extended Data Fig. 6 PXS-5505 in combination with gemcitabine in a KPC model. a. Quantification of proliferating cells (Ki67 positive nuclear staining) in KPC tumors at end point, treated as indicated. 5 fields of view (500 μm × 500 μm) per mouse and 10 mice per cohort were scored. […] Quantification of percent coverage of αSMA positive staining in KPC tumors at end point, treated as indicated. 3 fields of view (1000 μm × 1000 μm) per mouse and 10 mice per cohort were scored. […] Quantification of percent coverage of PDGFR-ß positive staining in KPC tumors at end point, treated as indicated. 3 fields of view (1000 μm × 1000 μm) per mouse and 10 mice per cohort were scored. […] Quantification of pMLC2 positive staining in stromal regions of KPC tumors at end point, treated as indicated. 3 fields of view (500 μm × 500 μm) per mouse and 10 mice per cohort were scored. […] Quantification of tumor vasculature (CD31 positive staining) in KPC tumors at end point, treated as indicated. 3 fields of view (1000 μm × 1000 μm) per mouse and 10 mice per cohort were scored. […] Quantification of STAT3 activation (pSTAT3 positive nuclear staining) in KPC tumors at end point, treated as indicated. 3 fields of view (1000 μm × 1000 μm) per mouse and 5 mice per cohort were scored. […] Scale bars = 100 μm. g Quantification of macrophage infiltration (F4/80 positive staining) in KPC tumors at end point, treated as indicated. […]

SMILES | Percent coverage of aSMA positive staining | α-SMA positivity (KPC tumors at end point)
Nc1ccn([C@@H]2O[C@H](CO)[C@@H](O)C2(F)F)c(=O)n1 [Gem, gemcitabine] | 4.1422% and 8.8428% and 3.9128% and 4.9851% and 3.7908% and 3.4102% and 13.5235% and 10.8353% and 9.6686% and 1.9907% and 2.1823% and 5.2926% and 3.0437% and 5.4036% and 4.2058% and 8.1217% and 4.3012% and 3.1567% and 3.0046% and 1.1246% and 5.0654% and 7.8034% and 8.097% and 1.0094% and 7.1387% and 7.3633% and 7.7939% and 1.1199% and 2.3003% and 3.6904% | small decreases in positivity
Cl.Cl.NC/C=C(\F)CS(=O)(=O)c1cccc2cccnc12.O [PXS-5505, (Z)-3-fluoro-4-(quinolin-8-ylsulfonyl)but-2-en-1-amine dihydrochloride monohydrate] | 3.0735% and 6.2874% and 6.4326% and 3.0495% and 2.5796% and 2.9175% and 6.2269% and 8.7759% and 5.9209% and 8.6578% and 7.7662% and 8.3469% and 5.6452% and 6.7775% and 4.6186% and 7.36% and 5.232% and 2.4577% and 4.7266% and 9.579% and 5.032% and 5.1635% and 4.6717% and 8.3034% and 3.41% and 6.5089% and 4.6457% and 1.885% and 5.2516% and 5.0893% | 
